Assay results reported in PubChem BioAssay (NCI).
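Method: 48-hour compound exposure of cells in 96-well plates, five concentrations, linear interpolation of endpoints. TGI: concentration producing complete growth inhibition.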

Assays:
Test in all cases: DTP human tumour cell line panel, 48 h
HCT-116 colon = system: HCT-116 colon
OVCAR-3 ovarian = system: OVCAR-3 ovarian
HOP-62 NSCLC = system: HOP-62 NSCLC
LOX IMVI melanoma = system: LOX IMVI melanoma
UACC-62 melanoma = system: UACC-62 melanoma
NCI/ADR-RES ovarian = system: NCI/ADR-RES ovarian
HS 578T breast = system: HS 578T breast
PC-3 prostate = system: PC-3 prostate
DU-145 prostate = system: DU-145 prostate
SF-268 CNS = system: SF-268 CNS

| SMILES | TGI (HCT-116 colon) [µM] | TGI (OVCAR-3 ovarian) [µM] | TGI (HOP-62 NSCLC) [µM] | TGI (LOX IMVI melanoma) [µM] | TGI (UACC-62 melanoma) [µM] | TGI (NCI/ADR-RES ovarian) [µM] | TGI (HS 578T breast) [µM] | TGI (PC-3 prostate) [µM] | TGI (DU-145 prostate) [µM] | TGI (SF-268 CNS) [µM] |
| --- | --- | --- | --- | --- | --- | --- | --- | --- | --- | --- |
| COC(=O)C12CCC(CC1=O)C2(C)C (centres undefined) | > 100 | > 100 | > 100 | > 100 | > 100 |  |  |  |  |  |
| O=C(N/N=C/c1ccc(O)cc1)NNCCO | > 100 | > 100 | > 100 |  | > 100 | > 100 | > 100 | > 100 | > 100 |  |
| Cn1cnc([N+](=O)[O-])c1Sc1nnc(-c2ccc(Cl)cc2)n1C | 25.8 | 26.9 | > 100 | 20.6 | 29 |  |  |  |  | 54.7 |
| Cc1c2cc[n+](C)cc2c(C)c2c1[nH]c1ccc(OC(C)(C)C)cc12 | > 100 |  | > 100 | > 100 | > 100 |  |  |  |  | > 100 |
| CCC(/C(=N/NC(=O)C[N+](C)(C)C)c1ccccc1)C1OC(=O)c2ccccc21 (centres undefined) | > 100 | > 100 | > 100 | > 100 | > 100 |  |  |  |  | > 100 |
| OC[C@H](O)[C@@H](OCc1ccccc1)[C@H](NCc1ccccc1)c1cccs1 | > 100 | > 100 | > 100 | > 100 | > 100 | > 100 |  | > 100 | > 100 | > 100 |
| CNC(=O)/C(C#N)=C(\N)N1CCCC1 | > 100 | > 100 | > 100 |  | > 100 | > 100 | > 100 | > 100 | > 100 | > 100 |
| COc1ccc(NC(=O)CC2SC(=Nc3ccc(Cl)cc3C)NC2=O)c([N+](=O)[O-])c1 (centres undefined) | > 100 | > 100 |  | > 100 | > 100 |  |  |  |  | > 100 |
| Nc1ccc2ncc(NCc3ccc(F)cc3)nc2c1 | > 100 | > 100 | > 100 | > 100 | > 100 |  |  |  |  | > 100 |
| Cc1nc2cc3[nH]c4ccccc4c(=O)c3cc2s1 | > 100 | > 100 | > 100 |  | > 100 |  |  |  |  | > 100 |
